Source: patent US6696498B2, “2-cyclopenten-1-one and its derivatives as inhibitors of the NF-kB factor” (Consiglio Nazionale Della Richerche, priority 1996, dated 2004)

Experiments:
NF-kB [1] = molecular target: T1, NF-kB (Homo sapiens, UniProt P19838+Q04206); experiment: TPA-induced NF-kB activation in Jurkat cells, EMSA of whole-cell extracts; type: cell-based; conditions: then TPA 25 ng/ml, extracts after 3 hours; for inhibition of TPA-induced NF-kB activation (specificity): 500 uM for 1 hour, FIG. 1C
T1 construct: endogenous in cells; host or cells: Jurkat (human T lymphoid cell line)
T1 sequence (P19838 1-433 limits assumed): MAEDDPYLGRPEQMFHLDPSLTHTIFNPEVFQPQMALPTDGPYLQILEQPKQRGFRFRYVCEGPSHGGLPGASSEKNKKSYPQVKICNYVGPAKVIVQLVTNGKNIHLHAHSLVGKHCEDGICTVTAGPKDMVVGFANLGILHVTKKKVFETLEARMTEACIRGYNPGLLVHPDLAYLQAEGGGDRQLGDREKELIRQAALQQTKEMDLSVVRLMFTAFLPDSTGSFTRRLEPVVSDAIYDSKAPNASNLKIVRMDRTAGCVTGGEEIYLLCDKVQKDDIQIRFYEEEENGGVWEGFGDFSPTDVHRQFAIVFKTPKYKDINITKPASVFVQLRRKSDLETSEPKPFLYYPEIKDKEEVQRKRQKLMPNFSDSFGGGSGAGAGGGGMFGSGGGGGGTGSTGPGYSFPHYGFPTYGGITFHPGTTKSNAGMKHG
T1 sequence (Q04206 whole entry): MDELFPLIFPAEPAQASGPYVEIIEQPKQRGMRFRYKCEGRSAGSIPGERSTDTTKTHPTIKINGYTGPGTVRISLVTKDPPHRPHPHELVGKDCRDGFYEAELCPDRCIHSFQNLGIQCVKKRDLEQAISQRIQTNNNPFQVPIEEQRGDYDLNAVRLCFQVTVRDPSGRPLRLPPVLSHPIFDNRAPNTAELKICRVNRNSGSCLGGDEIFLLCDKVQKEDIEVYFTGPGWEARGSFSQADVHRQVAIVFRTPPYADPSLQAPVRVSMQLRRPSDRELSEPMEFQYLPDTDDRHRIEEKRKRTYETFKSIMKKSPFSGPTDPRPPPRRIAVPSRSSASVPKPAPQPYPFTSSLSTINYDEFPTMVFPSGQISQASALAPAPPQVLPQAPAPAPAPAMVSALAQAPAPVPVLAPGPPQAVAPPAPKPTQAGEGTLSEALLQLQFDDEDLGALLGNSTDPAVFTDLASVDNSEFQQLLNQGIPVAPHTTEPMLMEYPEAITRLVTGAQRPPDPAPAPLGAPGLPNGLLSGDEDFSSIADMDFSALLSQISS
Text: (§1) Inhibition tests have been carried out in type T lymphoid human cells (Jurkat cell line), as well as in other human cell lines. NF-kB activation was stimulated with 12-o-tetradecanoyl-phorbol-13-acetate (TPA). 2-Cyclopenten-1-one was also effective in inhibiting NF-kB activation after other types of stimulation, including stimulation by tumor necrosis factor alpha or viral infection, and in different types of human cells (data not shown).
The effect of the treatment with 2-cyclopenten-1-one on NF-kB activation by TPA has been tested in Jurkat cells by using the procedures described hereinbelow and shown in FIG. 1.
(§2) The cells were prepared according to the method described in C. Amici et al. (Cancer Research 55, 4452-4457, 1995).
(§3) The cells were treated with 2-cyclopenten-1-one at different concentrations (125-1000 μM) for 1 hour and then were stimulated with TPA (25 ng/ml).
(§4) After 3 hours the whole-cell extracts were prepared and subjected to EMSA (Electrophoretic Mobility Shift Assay) as described for NF-kB in U. Zabel et al. (J. Biol. Chem. 266: 242, 1991) and HSF in C. Amici et al. (Cancer Res. 55: 4452, 1995), to determine NF-kB and HSF activation respectively.
(§5) The cells were treated for 1 hour with the same concentration (500 uM) of: 2-cyclopenten-1-one, cyclopentanone or cyclopentene, and then were stimulated with TPA (25 ng/ml). C represents the non-TPA-stimulated control. After 3 hours the whole-cell extracts were prepared and subjected to EMSA to verify the activation of NF-kB (FIG. 1C) and of HSF (FIG. 1D) respectively.

[2] = tested on: HSF (Heat Shock Transcription Factor); experiment: HSF activation in TPA-stimulated Jurkat cells, EMSA of whole-cell extracts; type: cell-based, human; conditions: then TPA 25 ng/ml, extracts after 3 hours; for activation of HSF (specificity): 500 uM for 1 hour, FIG. 1D
Experimental: as §2, §3, §4
The positions of the complex HSF-DNA (HSF), the HSF-DNA constitutive activity (CHBA) and the proteins-DNA non-specific interactions (ns) are indicated in FIG. 1B. The line “econtrol” indicates the non-TPA-stimulated cells as a control of non-activated NF-kB.
as §5

NF-kB [3] = molecular target: T1, NF-kB; experiment: NF-kB activation after other types of stimulation (tumor necrosis factor alpha or viral infection) in different human cells; type: cell-based; conditions: stimulation by tumor necrosis factor alpha or viral infection, data not shown
Text: as §1

SMILES | inhibition of TPA-induced NF-kB activation (specificity) (NF-kB [1]) | activation of HSF (specificity) [2] | inhibition of NF-kB activation by TPA (NF-kB [1]; 125 uM for 1 hour, FIG. 1A) | NF-kB band (NF-kB-DNA complex) in EMSA (NF-kB [1]; 500 um for 1 hour, FIG. 1A) | concentration from which activation of HSF is evident ([2]; 125-1000 μM for 1 hour, FIG. 1B) [µM] | inhibition of NF-kB activation after other types of stimulation (NF-kB [3])
O=C1CCCC1 [cyclopentanone, reference compound] | do not inhibit | do not activate |  |  |  | 
O=C1C=CCC1 [2-cyclopenten-1-one] | inhibits |  | able to inhibit | absent | ≥ 125 | effective
C1=CCCC1 [cyclopentene, reference compound] | do not inhibit | do not activate |  |  |  | 
